Where two headings read alike, the source gives them in different places.
Key:
[1] = test system: isolated rat liver mitochondria; assay: Mitochondrial inner membrane potential (MMP), Rhodamine 123; type: biochemical
Description: Fig. 3 KI effects on mitochondrial inner membrane potential (MMP). […] In a, c, data are means and standard derivations from three separate experiments. *p < 0.05 as compared to DMSO-treated samples at the end of experiments. In b, data are means of two independent experiments

RCC II = target: T1, RCC II (Rattus norvegicus, UniProt P21913+Q641Z9+Q6PCT8+Q920L2); assay: RCC II activity in submitochondrial particles; type: biochemical; set-up: key: activity relative to DMSO-treated controls (control set as 1 = 100%); settings: DMSO treated samples set as 1
T1 construct: Submitochondrial particles were prepared by subjecting the intact mitochondria to three successive freeze–thaw cycles; from tissue; host or cells: rat liver mitochondria, used as submitochondrial particles
T1 sequence (Q920L2 35-656): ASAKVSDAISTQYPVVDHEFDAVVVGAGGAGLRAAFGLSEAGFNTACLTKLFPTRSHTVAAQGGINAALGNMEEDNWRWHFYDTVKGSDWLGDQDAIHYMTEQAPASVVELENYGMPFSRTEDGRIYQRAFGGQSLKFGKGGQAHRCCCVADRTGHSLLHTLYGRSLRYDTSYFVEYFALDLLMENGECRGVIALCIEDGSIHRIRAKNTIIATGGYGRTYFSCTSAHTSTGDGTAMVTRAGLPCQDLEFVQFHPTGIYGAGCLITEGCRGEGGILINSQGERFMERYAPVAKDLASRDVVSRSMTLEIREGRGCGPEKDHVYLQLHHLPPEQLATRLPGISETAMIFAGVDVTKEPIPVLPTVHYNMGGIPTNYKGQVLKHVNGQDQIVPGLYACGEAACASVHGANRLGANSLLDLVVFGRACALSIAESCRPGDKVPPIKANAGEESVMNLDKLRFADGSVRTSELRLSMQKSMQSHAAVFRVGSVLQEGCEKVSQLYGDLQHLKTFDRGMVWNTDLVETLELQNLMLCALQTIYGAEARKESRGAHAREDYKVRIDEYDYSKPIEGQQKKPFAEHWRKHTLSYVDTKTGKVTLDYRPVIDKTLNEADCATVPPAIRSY
T1 sequence (P21913 31-282): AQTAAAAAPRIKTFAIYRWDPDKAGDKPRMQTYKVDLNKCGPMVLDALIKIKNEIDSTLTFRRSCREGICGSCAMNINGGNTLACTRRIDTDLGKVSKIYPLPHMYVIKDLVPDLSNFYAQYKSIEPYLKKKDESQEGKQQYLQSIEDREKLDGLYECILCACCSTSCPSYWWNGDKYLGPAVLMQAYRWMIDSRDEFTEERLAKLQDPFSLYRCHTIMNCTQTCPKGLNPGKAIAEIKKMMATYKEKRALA
T1 sequence (Q641Z9 1-169): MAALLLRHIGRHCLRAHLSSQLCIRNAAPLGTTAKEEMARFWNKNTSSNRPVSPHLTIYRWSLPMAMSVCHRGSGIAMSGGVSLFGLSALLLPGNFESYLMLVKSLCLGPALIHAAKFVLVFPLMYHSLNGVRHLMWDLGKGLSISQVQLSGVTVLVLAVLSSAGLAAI
T1 sequence (Q6PCT8 57-159): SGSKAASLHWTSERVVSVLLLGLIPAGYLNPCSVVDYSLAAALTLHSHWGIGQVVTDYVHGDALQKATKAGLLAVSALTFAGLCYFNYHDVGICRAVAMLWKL
Summary of the method: (§1)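 Inhibitors preincubated 15 min with submitochondrial particles (1 mg/ml) before activity readout. RCC I (rotenone-sensitive fraction) and I/V: A340, and RCC II: A600, each every 1 min for 6 min; RCC III/IV: A550 every 10 s for 2 min. Activities relative to DMSO control set as 1.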

[2] = test system: isolated rat liver mitochondria; settings: positive control alamethicin treated samples
[3] = test system: isolated rat liver mitochondria; assay: Mitochondrial ROS production (CM-H2DCFDA)
[4] = Solubility of DMSO stock for 100X/50X Cmax testing; type: physicochemical; settings: solubility in DMSO
Description: Supplement 204_2016_1918_MOESM3_ESM.xlsx, sheet "Sheet1" | column: 100 Cmax; 50 Cmax; note

RCC III = RCC III activity in submitochondrial particles; type: biochemical, rat; settings: 15 min, DMSO-treated = 100
Summary of the method: as §1

[5] = cited from earlier work
RCC V = RCC V activity in submitochondrial particles; type: biochemical, rat; settings: for RCC activity V: 15 min, DMSO-treated = 100; for RCC V at 5XCmax: key: 0 indicates that the drug had no effects (negative)
Summary of the method: as §1

[6] = test system: isolated rat liver mitochondria; assay: Mitochondrial oxygen consumption (glutamate/malate or succinate driven, state 4 and state 3); type: biochemical; settings: for Glutamate/malate driven respiration State 3 / Glutamate/malate driven respiration State 4 / Succinate-driven respiration State 3 / Succinate-driven respiration State 4: oxygen consumption, DMSO-treated = 1; for State 3 respiration driven by succinate at 10XCmax: key: 0 indicates that the drug had no effects (negative); for State 3 respiration driven by succinate at 1XCmax: key: 0 indicates that the drug had no effects (negative)
Summary of the method: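 Rat liver mitochondria (1 mg/ml protein) exposed 5 min to kinase inhibitors in 0.1% DMSO, then O2 consumption measured by Clark-type electrode with glutamate/malate or succinate (state 4), ADP added after 3 min (state 3). Rates normalized to 0.1% DMSO controls set to 1.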

RCC I = RCC I activity in submitochondrial particles; type: biochemical, rat; set-up: key to RCC I at 10XCmax / RCC I at 100XCmax / RCC I at 50XCmax / RCC I at 30XCmax / RCC I at 20XCmax: activity relative to DMSO-treated controls (control set as 1 = 100%); settings: for RCC activity I: 15 min
Summary of the method: as §1

RCC IV = RCC IV activity in submitochondrial particles; type: biochemical, rat; settings: 15 min, DMSO-treated = 100
Summary of the method: as §1

[7] = test system: isolated rat liver mitochondria; assay: Mitochondrial swelling (absorbance at 535 nm); type: biochemical; for Swelling 5XCmax: key: 0 indicates that the drug had no effects (negative)
[8] = test system: isolated rat liver mitochondria; assay: Mitochondrial toxicity, any endpoint, intact mitochondria and submitochondrial particles; type: biochemical; settings: any endpoint
Summary of the method: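 Rat liver mitochondria isolated by differential centrifugation in sucrose/Tris-MOPS/EGTA buffer pH 7.4, adjusted to 1 mg/ml protein before treatment. Kinase inhibitors added at 1:1000 dilution of stock; final DMSO 0.1%, with 0.1% DMSO controls.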

[9] = ref FDA product labeling, cited from earlier work
RCC I–V = assay: Activities of RCC I–V, overall statements; type: biochemical, rat; settings: submitochondrial particles
Method: KIs were incubated with submitochondrial particles (1 mg/ml) for 15 min and then RCC I–V activities measured. […] The activities of DMSO-treated samples (controls) were set as 1. […] The difference between the activity from rotenone-containing buffer and rotenone-absent buffer was considered as RCC I activity. […] For measuring RCC I/V and II activity, the changes in absorbance at 340 and 600 nm, respectively, were determined every 1 min for 6 min. For measuring RCC III and RCC IV, the changes in absorbance at 550 nm were measured every 10 s for 2 min.

[10] = 1XCmax, difference in signal between KI and DMSO treated samples at the end of experiments
[11] = 2.5XCmax, difference in signal between KI and DMSO treated samples at the end of experiments
[12] = 5XCmax, difference in signal between KI and DMSO treated samples at the end of experiments
[13] = 10XCmax, difference in signal between KI and DMSO treated samples at the end of experiments
[14] = 20XCmax, difference in signal between KI and DMSO treated samples at the end of experiments
[15] = 1XCmax, DMSO treated samples set as 1
[16] = 2.5XCmax, DMSO treated samples set as 1
[17] = 5XCmax, DMSO treated samples set as 1
[18] = 10XCmax, DMSO treated samples set as 1
[19] = 20XCmax, DMSO treated samples set as 1
[20] = human therapeutic Cmax at FDA recommended dosages, ref product labeling and drug approval packages at the official FDA website
[21] = up to 100-fold Cmax or highest testable concentration

## CCc1cc2c(cc1N1CCC(N3CCOCC3)CC1)C(C)(C)c1[nH]c3cc(C#N)ccc3c1C2=O [Alectinib]
[1]; [10]
  MMP measured by Rhodamine 123 at 1XCmax: 0
[1]; [11]
  MMP measured by Rhodamine 123 at 2.5XCmax: 0
[1]; [12]
  MMP measured by Rhodamine 123 at 5XCmax: 0
[1]; [13]
  MMP measured by Rhodamine 123 at 10XCmax: 0
[1]; [14]
  MMP measured by Rhodamine 123 at 20XCmax: 0
RCC II; 1.0XCmax
  RCC II at 1.0XCmax: 0
RCC II; 2.5XCmax
  RCC II at 2.5XCmax: 0
RCC II; 5XCmax
  RCC II at 5XCmax: 0
RCC II; 10XCmax
  RCC II at 10XCmax: 0
RCC II; 20XCmax
  RCC II at 20XCmax: 0
[2]; 1XCmax
  Cytochrome c release 1XCmax: 0
[2]; 2.5XCmax
  Cytochrome c release 2.5XCmax: 0
[2]; 5XCmax
  Cytochrome c release 5XCmax: 0
[2]; 10XCmax
  Cytochrome c release 10XCmax: 0
[2]; 20XCmax
  Cytochrome c release 20XCmax: 0
[3]; [15]
  ROS measured by CM-H2DCFDA at 1XCmax: 0
[3]; [16]
  ROS measured by CM-H2DCFDA at 2.5XCmax: 0
[3]; [17]
  ROS measured by CM-H2DCFDA at 5XCmax: 0
[3]; [18]
  ROS measured by CM-H2DCFDA at 10XCmax: 0
[3]; [19]
  ROS measured by CM-H2DCFDA at 20XCmax: 0
[4]; stock for 50 Cmax
  DMSO stock for 50 Cmax: not soluble
[4]; stock for 100 Cmax
  DMSO stock for 100 Cmax: not soluble
RCC III; 20-fold Cmax
  RCC activity III: 116.05 ± 4.72 % of control
[5]; [20]
  Cmax: 1.37 µM
[5]; human therapeutic maximal blood concentration, ref product labeling
  Cmax (ng or µg/ml): 0.665 µg/mL
[5]; read-out: Cmax at µM, human therapeutic maximal blood concentration, ref product labeling
  Cmax: 1.37 µM
RCC V; [17]
  RCC V at 5XCmax: 0
RCC V; 20-fold Cmax
  RCC activity V: 106.30 ± 11.74 % of control
[6]; [15]
  State 3 respiration driven by succinate at 1XCmax: 0
  State 4 respiration driven by succinate at 1XCmax: 0
[6]; [16]
  State 3 respiration driven by succinate at 2.5XCmax: 0
  State 4 respiration driven by succinate at 2.5XCmax: 0
[6]; [17]
  State 3 respiration driven by succinate at 5XCmax: 0
  State 4 respiration driven by succinate at 5XCmax: 0
[6]; [18]
  State 3 respiration driven by succinate at 10XCmax: 0
  State 4 respiration driven by succinate at 10XCmax: 0
[6]; [19]
  State 3 respiration driven by succinate at 20XCmax: 0
  State 4 respiration driven by succinate at 20XCmax: 0
RCC I; [18]
  RCC I at 10XCmax: 0
RCC I; 20-fold Cmax, DMSO-treated = 100
  RCC activity I: 89.39 ± 2.98 % of control
RCC I; 20XCmax, DMSO-treated = 100
  RCC I at 20XCmax: 89.39±2.98
RCC IV; 20-fold Cmax
  RCC activity IV: 101.46 ± 1.66 % of control
[7]; [10]
  Swelling 1XCmax: 0
[7]; [11]
  Swelling 2.5XCmax: 0
[7]; [12]
  Swelling 5XCmax: 0
[7]; [13]
  Swelling 10XCmax: 0
[7]; [14]
  Swelling 20XCmax: 0

## CNC(=O)c1cc(Oc2ccc(NC(=O)Nc3ccc(Cl)c(C(F)(F)F)c3)cc2)ccn1 [Sorafenib]
[8]
  lowest concentration causing significant mitochondrial toxicity: equal to the Cmax
[1]
  lowest concentration decreasing MMP: onefold
[1]; [21]
  effect on MMP: decrease in MMP
[9]; W&P warnings and precautions, BBW black box warnings
  labeling for DILI: W&P: fatal DILI
[9]
  DILI potential (based on labeling): 1
[3]; highest tested concentrations
  effect on ROS production: neither of them affected ROS production
RCC III; 5-fold Cmax
  RCC activity III: 97.60 ± 5.50 % of control
RCC III; 10-fold Cmax
  RCC activity III: 94.31 ± 7.47 % of control
[5]; [20]
  Cmax: 4.3 µM
RCC V; 10-fold Cmax
  RCC activity V: 65.55 ± 6.34 % of control
[6]; 1-fold Cmax
  Glutamate/malate driven respiration State 3: 1.15 ± 0.09
  Glutamate/malate driven respiration State 4: 2.55 ± 0.27
  Succinate-driven respiration State 3: 1.00 ± 0.10
  Succinate-driven respiration State 4: 1.50 ± 0.21
[6]; 2.5-fold Cmax
  Glutamate/malate driven respiration State 3: 1.57 ± 0.06
  Glutamate/malate driven respiration State 4: 4.92 ± 0.09
  Succinate-driven respiration State 3: 0.62 ± 0.05
  Succinate-driven respiration State 4: 1.43 ± 0.06
[6]; 5-fold Cmax
  Glutamate/malate driven respiration State 4: 3.69 ± 0.12
  Succinate-driven respiration State 3: 0.40 ± 0.01
  Succinate-driven respiration State 4: 1.03 ± 0.08
[6]; 10-fold Cmax
  Glutamate/malate driven respiration State 3: 0.93 ± 0.34
  Glutamate/malate driven respiration State 4: 5.00 ± 1.92
  Succinate-driven respiration State 3: 1.03 ± 0.19
  Succinate-driven respiration State 4: 3.34 ± 0.45
[6]; highest tested concentrations
  effect on state 4 respiration: significant increases
[6]; tested at 1 to 100-fold Cmax
  lowest concentration significantly affecting mitochondrial oxygen consumption: equal to Cmax
RCC I; 5-fold Cmax, DMSO-treated = 100
  RCC activity I: 87.23 ± 10.61 % of control
RCC I; 10-fold Cmax, DMSO-treated = 100
  RCC activity I: 85.45 ± 11.93 % of control
RCC I–V
  lowest concentration inhibiting RCCs: fivefold
RCC I–V; [21]
  RCCs inhibited: RCC V
RCC IV; 5-fold Cmax
  RCC activity IV: 101.55 ± 3.61 % of control
RCC IV; 10-fold Cmax
  RCC activity IV: 107.65 ± 10.77 % of control
[7]
  lowest concentration causing mitochondrial swelling: 2.5 fold Cmax
[7]; up to 100-fold Cmax or highest testable concentration, 25 µM calcium chloride
  effect on mitochondrial swelling: significant mitochondrial swelling
